Assay results: publication PMC6269716 (2013)

How the values were obtained:
[1] = test system: DK66 (DNA, duplex) CGCGAATTCGCG; assay: ESI-MS peak intensities; conditions: NH4+ (150 mM ammonium acetate), 15% methanol added before injection, 5 µM DNA
[2] = test system: HTelo21 (DNA, G4) GGGTTAGGGTTAGGGTTAGGG; assay: ESI-MS peak intensities; conditions: NH4+ (150 mM ammonium acetate); 15% methanol added before injection; 5 µM DNA; site 1 of 2
[3] = test system: BCL2 (FRET) (DNA, G4) GGGCGCGGGAGGAAGGGGGCGGG; assay: FRET melting; conditions: K+ (60 mM); potassium cacodylate pH 7.4; 1 µM compound; 200 nM DNA
[4] = test system: F21T (HTelo-21, FRET) (DNA, G4) GGGTTAGGGTTAGGGTTAGGG; assay: FRET melting; conditions: K+ (60 mM); potassium cacodylate pH 7.4; 1 µM compound; 200 nM DNA
[5] = test system: CKIT1 (c-kit-1, FRET) (DNA, G4) AGAGGGAGGGCGCTGGGAGGAGGGGCT; assay: FRET melting; conditions: K+ (60 mM); potassium cacodylate pH 7.4; 1 µM compound; 200 nM DNA
[6] = test system: T Loop (DNA, hairpin, hexaethyleneglycol (HEG) linker between nucleotides 10 and 11 as hairpin loop) TATAGCTATATATAGCTATA; assay: FRET melting; conditions: K+ (60 mM); potassium cacodylate pH 7.4; 1 µM compound; 200 nM DNA

Log K1 ([1]; site 1 of 2)	Log K1 [2]	ΔTm [3] [°C]	ΔTm [4] [°C]	ΔTm [5] [°C]	ΔTm [6] [°C]	Log K1 [1]	SMILES
3.3 ± 0.2	4.0 ± 0.1	–	–	–	–	–	CN(C)CCCCCC(=O)c1ccc2oc3ccc(C(=O)CCCCCN(C)C)cc3c(=O)c2c1
1.8 ± 0.2	4.1 ± 0.1	–	–	–	–	–	CN1CCN(CCCCCC(=O)c2ccc3oc4ccc(C(=O)CCCCCN5CCN(C)CC5)cc4c(=O)c3c2)CC1
3.7 ± 0.1	4.4 ± 0.1	–	–	–	–	–	CN1CCN(CCCCCC(=O)c2ccc3c(c2)Cc2cc(C(=O)CCCCCN4CCN(C)CC4)ccc2O3)CC1
3.8 ± 0.2	4.7 ± 0.1	0.7 ± 0.1	1.3 ± 0.1	1.0 ± 0.1	0.4 ± 0.1	–	O=C(CCCCCN1CCCCC1)c1ccc2c(c1)Cc1cc(C(=O)CCCCCN3CCCCC3)ccc1O2
3.7 ± 0.1	4.4 ± 0.1	–	–	–	–	–	O=C(CCCCCN1CCCCC1)c1ccc2oc3ccc(C(=O)CCCCCN4CCCCC4)cc3c(=O)c2c1
–	4.7 ± 0.1	–	–	–	–	3.4 ± 0.1	O=c1c2ccc(OCCCCN3CCCCC3)cc2oc2cc(OCCCCN3CCCCC3)ccc12
3.6 ± 0.1	4.7 ± 0.1	–	–	–	–	–	CN(C)CCCCOc1ccc2c(=O)c3ccc(OCCCCN(C)C)cc3oc2c1
3.9 ± 0.1	5.8 ± 0.1	–	–	–	–	–	O=C(CCCCCN1CCCCC1)c1ccc2c(c1)C(CCCC1c3cc(C(=O)CCCCCN4CCCCC4)ccc3Oc3ccc(C(=O)CCCCCN4CCCCC4)cc31)c1cc(C(=O)CCCCCN3CCCCC3)ccc1O2
3.5 ± 0.1	4.3 ± 0.1	–	–	–	–	–	CN1CCN(CCCCOc2ccc3c(=O)c4ccc(OCCCCN5CCN(C)CC5)cc4oc3c2)CC1
3.6 ± 0.3	5.2 ± 0.4	4.8 ± 0.1	11.9 ± 0.1	7.9 ± 0.1	2.2 ± 0.1	–	CN(C)CCCCCC(=O)c1ccc2c(c1)C(CCCCN(C)C)c1cc(C(=O)CCCCCN(C)C)ccc1O2
3.4 ± 0.2	4.6 ± 0.1	–	–	–	–	–	CN(C)CCCCCC(=O)c1ccc2c(c1)Cc1cc(C(=O)CCCCCN(C)C)ccc1O2
